Experimental data as given in PubChem BioAssay (NCI).
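96-well plates; 48 h exposure; 5 concentrations. Endpoints by linear interpolation between flanking doses. Not reached: highest tested concentration assigned. TGI is the concentration that stops growth completely.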

Legend:
Assay in all cases: NCI-60 cell line screen, 48 h
OVCAR-8 ovarian = system: OVCAR-8 ovarian
UO-31 renal = system: UO-31 renal
HS 578T breast = system: HS 578T breast
NCI-H226 lung = system: NCI-H226 lung
SNB-75 CNS = system: SNB-75 CNS
UACC-257 melanoma = system: UACC-257 melanoma
SW-620 colon = system: SW-620 colon
BT-549 breast = system: BT-549 breast
RPMI-8226 leukemia = system: RPMI-8226 leukemia
MDA-N = system: MDA-N

| SMILES | TGI (OVCAR-8 ovarian) [µM] | TGI (UO-31 renal) [µM] | TGI (HS 578T breast) [µM] | TGI (NCI-H226 lung) [µM] | TGI (SNB-75 CNS) [µM] | TGI (UACC-257 melanoma) [µM] | TGI (SW-620 colon) [µM] | TGI (BT-549 breast) [µM] | TGI (RPMI-8226 leukemia) [µM] | TGI (MDA-N) [µM] |
| --- | --- | --- | --- | --- | --- | --- | --- | --- | --- | --- |
| COC(=O)[C@@H]1C=C[C@@H](C#N)n2c(=O)n(-c3ccccc3)c(=O)n21 | 57.8 | > 100 | > 100 | 40.4 | 79 | > 100 | > 100 | > 100 | 73.3 |  |
| CSc1c(C(=O)Nc2ccc(C)cc2)c(N)nn1-c1ccccc1 |  | > 100 | > 100 | > 100 |  | > 100 | > 100 | > 100 | > 100 | > 100 |
| CCOC(=O)c1ncoc1[C@H]1COC(C)(C)O1 | > 100 | > 100 |  | > 100 | > 100 | > 100 | > 100 |  | > 100 |  |
| CN1CCN(c2nc3ccccc3nc2C(=O)c2ccc(Cl)cc2)CC1 | > 100 | > 100 | > 100 |  | > 100 | > 100 | > 100 |  | 77.4 | > 100 |
| O=C1/C(=C\c2ccc([N+](=O)[O-])cc2)Sc2scc(-c3ccc(O)c(O)c3)[n+]21 | 29.3 | 22.3 | 63.7 | > 100 | 25.9 | 22.6 | 15 |  | 15.2 | 25.6 |
| CSC(SC)=C1C(=O)NN=C1C |  | > 100 | > 100 | > 100 |  | > 100 | > 100 | > 100 | > 100 | > 100 |
| CC1=C2C(=O)O[C@@H](c3ccoc3)[C@]2(C)CCC1=O | > 100 | > 100 |  | > 100 | > 100 | > 100 | > 100 | > 100 | > 100 | > 100 |
| Cc1cc(C)c(S(=O)(=O)N[C@@H](/C=C(\Br)CO)C(C)C)c(C)c1 | > 100 | > 100 | 54.5 |  | > 100 | 54.6 | > 100 | 85.2 | 54.5 | 69.8 |
| Cc1ccc(S(=O)(=O)NC(=O)NC(CO)C(=O)O)cc1 (stereo not given) | > 100 | > 100 | > 100 |  | > 100 | > 100 | > 100 | > 100 | > 100 | > 100 |
| Cc1cc2nc(N3C(=O)/C(=C/c4cccc([N+](=O)[O-])c4)N=C3c3ccccc3)sc2cc1C | 80.2 | > 100 | > 100 |  | 33.2 | > 100 | > 100 | > 100 | 48.1 | 34.1 |
| ClC(Cl)(Cl)C1CCOC1n1nc2ccccc2n1 (stereo not given) | > 100 |  | > 100 | > 100 | > 100 | > 100 |  | > 100 |  | > 100 |
| Cc1c(C(=O)CSc2nc3ccc([N+](=O)[O-])cc3[nH]2)c(=O)n(-c2ccccc2)n1C | > 100 | > 100 |  | > 100 | > 100 | > 100 | > 100 |  | > 100 |  |
| CCOc1ccc2ccccc2c1NC1=NCCO1 | > 100 | 64.7 | 78.2 | 85.4 | > 100 | > 100 | > 100 |  | 59.4 |  |
| CC12CC3CC/C(=N\O)C(C1)C3(N1CCOCC1)C/C2=N/O (stereo not given) | > 100 | > 100 |  | > 100 | 94.8 | > 100 | > 100 |  |  | > 100 |
| CSCCC(NCc1c(O)ccc2ccc(=O)oc12)C(=O)O (stereo not given) | > 100 | > 100 | > 100 | > 100 | > 100 | > 100 | > 100 |  | > 100 | > 100 |
| COC(=O)c1ccc2c(c1)CC1(C2)Cc2cc3c(c(C(=O)OC)c2C1)CCCC3 (stereo not given) | > 100 | > 100 | > 100 | > 100 | > 100 | > 100 | > 100 |  | > 100 | > 100 |
| CC(C)Nc1[nH]c(C(=O)c2ccccc2)c(N)c1C(=S)Nc1ccccc1 | > 100 | > 100 | > 100 | > 100 | > 100 | 46.7 | > 100 | > 100 |  | > 100 |
| CC(C)C1CC=NN1C(=O)OC(C)(C)C (stereo not given) | > 100 | > 100 | > 100 | > 100 | > 100 | > 100 | > 100 |  | > 100 | > 100 |
